Source: patent US10479795B2 (Incyte Corporation, priority 2016, dated 2019)
Counter-ions that a name gives are not always drawn.

Target: PI3Kγ (p110γ) Recombinant Human Protein (Homo sapiens (Human), UniProt P48736)
Experiment: PI3K-γ Scintillation Proximity Assay
Format: biochemical
Conditions: read-out: PI3Kγ IC50
Experimental: [γ-^33P]ATP (10 mCi/mL) and Wheat Germ Agglutinin (WGA) YSi SPA Scintillation Beads was purchased from Perkin-Elmer (Waltham, Mass.). […] PI3Kγ (p110γ) Recombinant Human Protein was purchased from Life technology (Grand Island, N.Y.). ATP, MgCl2, DTT, EDTA, MOPS and CHAPS were purchased from Sigma-Aldrich (St. Louis, Mo.).
The kinase reaction was conducted in polystyrene 384-well Greiner Bio-one white plate from Thermo Fisher Scientific in a final volume of 25 μL. Inhibitors were first diluted serially in DMSO and added to the plate wells before the addition of other reaction components. The final concentration of DMSO in the assay was 2%. The PI3Kγ assay was carried out at room temperature in 20 mM MOPS, pH 6.7, 10 mM MgCl2, 5 mM DTT and CHAPS 0.03%. Reactions were initiated by the addition of ATP, the final reaction mixture consisted of 20 μM PIP2, 2 μM ATP, 0.5 μCi [γ-^33P] […] The final concentration of SPA beads is 1.0 mg/mL. After the plate sealing, plates were shaken overnight at room temperature and centrifuged at 1500 rpm for 10 min, the radioactivity of the product was determined by scintillation counting on Topcount (Perkin-Elmer). IC50 determination was performed by fitting the curve of percent of the solvent control activity versus the log of the inhibitor concentration using the GraphPad Prism 6.0 software.

Chain of PI3Kγ (p110γ) Recombinant Human Protein (P48736 whole entry): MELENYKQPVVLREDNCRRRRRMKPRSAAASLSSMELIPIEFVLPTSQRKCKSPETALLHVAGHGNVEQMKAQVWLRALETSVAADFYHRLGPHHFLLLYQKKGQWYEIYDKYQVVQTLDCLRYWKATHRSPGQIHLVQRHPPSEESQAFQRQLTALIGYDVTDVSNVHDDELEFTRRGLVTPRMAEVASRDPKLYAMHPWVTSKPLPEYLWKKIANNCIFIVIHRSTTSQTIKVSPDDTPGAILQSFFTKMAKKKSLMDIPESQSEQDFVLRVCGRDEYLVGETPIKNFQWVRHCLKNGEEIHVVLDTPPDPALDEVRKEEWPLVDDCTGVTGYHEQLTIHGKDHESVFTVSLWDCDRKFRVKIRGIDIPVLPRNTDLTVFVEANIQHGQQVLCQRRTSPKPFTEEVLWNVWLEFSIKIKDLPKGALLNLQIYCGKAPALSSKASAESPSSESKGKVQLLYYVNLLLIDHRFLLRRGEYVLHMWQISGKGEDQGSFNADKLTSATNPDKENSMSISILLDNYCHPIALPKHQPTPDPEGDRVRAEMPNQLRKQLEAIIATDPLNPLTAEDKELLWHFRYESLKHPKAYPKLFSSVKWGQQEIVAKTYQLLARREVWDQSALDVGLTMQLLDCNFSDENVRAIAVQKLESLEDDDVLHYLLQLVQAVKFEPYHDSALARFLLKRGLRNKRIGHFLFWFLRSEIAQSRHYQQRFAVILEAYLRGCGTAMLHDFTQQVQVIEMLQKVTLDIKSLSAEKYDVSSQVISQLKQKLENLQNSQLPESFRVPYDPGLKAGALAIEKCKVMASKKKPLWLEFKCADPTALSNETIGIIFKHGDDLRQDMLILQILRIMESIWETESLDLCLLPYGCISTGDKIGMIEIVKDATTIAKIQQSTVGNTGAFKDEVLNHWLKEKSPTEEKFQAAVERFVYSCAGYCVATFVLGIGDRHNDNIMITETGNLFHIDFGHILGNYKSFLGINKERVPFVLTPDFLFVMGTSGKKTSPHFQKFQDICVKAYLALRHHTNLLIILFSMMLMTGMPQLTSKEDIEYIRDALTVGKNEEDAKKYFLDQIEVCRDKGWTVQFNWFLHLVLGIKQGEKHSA

SMILES	IC50 [µM]
Cc1ccc(S(=O)(=O)NC(C)(C)CN2CCCC2)cc1-c1cnc2c(N)ncnn12 [Example 239, 3-(4-aminoimidazo[2,1-f][1,2,4]triazin-7-yl)-4-methyl-N-(2-methyl-1-(pyrrolidin-1-yl)propan-2-yl)benzenesulfonamide]	0.5 to 2
Cc1ccc(S(=O)(=O)N2CCn3ncc(C#N)c3C2)cc1-c1cnc2c(N)ncnn12 [Example 240, 5-((3-(4-aminoimidazo[2,1-f][1,2,4]triazin-7-yl)-4-methylphenyl)sulfonyl)-4,5,6,7-tetrahydropyrazolo[1,4-a]pyrazine-3-carbonitrile]	< 0.1
Cc1ccc(S(=O)(=O)N2CCn3cnc(C(=O)NCC(F)(F)F)c3C2)cc1-c1cnc2c(N)ncnn12 [Example 241, 7-((3-(4-aminoimidazo[2,1-f][1,2,4]triazin-7-yl)-4-methylphenyl)sulfonyl)-N-(2,2,2-trifluoroethyl)-5,6,7,8-tetrahydroimidazo[1,5-a]pyrazine-1-carboxamide]	< 0.1
Cc1ccc(S(=O)(=O)Nc2ccc(C(=O)N3CC(O)C3)nc2)cc1-c1cnc2c(N)ncnn12 [Example 242, 3-(4-aminoimidazo[2,1-f][1,2,4]triazin-7-yl)-N-(6-(3-hydroxyazetidine-1-carbonyl)pyridin-3-yl)-4-methylbenzenesulfonamide]	< 0.1
Cc1ccc(S(=O)(=O)Nc2cc3cn[nH]c3cn2)cc1-c1cnc2c(N)ncnn12 [Example 243, 3-(4-aminoimidazo[2,1-f][1,2,4]triazin-7-yl)-4-methyl-N-(1H-pyrazolo[3,4-c]pyridin-5-yl)benzenesulfonamide]	< 0.1
CC(=O)Nc1ccc(NS(=O)(=O)c2ccc(C)c(-c3cnc4c(N)ncnn34)c2)cn1 [Example 244, N-(5-((3-(4-aminoimidazo[2,1-f][1,2,4]triazin-7-yl)-4-methylphenyl)sulfonamido)pyridin-2-yl)acetamide]	< 0.1
Cc1ccncc1NS(=O)(=O)c1ccc(C)c(-c2cnc3c(N)ncnn23)c1 [Example 245, 3-(4-aminoimidazo[2,1-f][1,2,4]triazin-7-yl)-4-methyl-N-(4-methylpyridin-3-yl)benzenesulfonamide]	< 0.1
COc1ccc(NS(=O)(=O)c2ccc(C)c(-c3cnc4c(N)ncnn34)c2)c(C)n1 [Example 246, 3-(4-aminoimidazo[2,1-f][1,2,4]triazin-7-yl)-N-(6-methoxy-2-methylpyridin-3-yl)-4-methylbenzenesulfonamide]	< 0.1
Cc1ccc(S(=O)(=O)N(C)c2ccncc2)cc1-c1cnc2c(N)ncnn12 [Example 247, 3-(4-aminoimidazo[2,1-f][1,2,4]triazin-7-yl)-N,4-dimethyl-N-(pyridin-4-yl)benzenesulfonamide]	< 0.1
Cc1ccc(S(=O)(=O)Nc2ccnc(C#N)c2)cc1-c1cnc2c(N)ncnn12 [Example 248, 3-(4-aminoimidazo[2,1-f][1,2,4]triazin-7-yl)-N-(2-cyanopyridin-4-yl)-4-methylbenzenesulfonamide]	< 0.1
Cc1ccc(S(=O)(=O)NCc2ccnn2C)cc1-c1cnc2c(N)nc(C(F)(F)F)nn12 [Example 357, 3-(4-amino-2-(trifluoromethyl)imidazo[2,1-f][1,2,4]triazin-7-yl)-4-methyl-N-((1-methyl-1H-pyrazol-5-yl)methyl)benzenesulfonamide]	< 0.1
Cc1ccc(S(=O)(=O)NCc2cnccn2)cc1-c1cnc2c(N)nc(C(F)(F)F)nn12 [Example 358, 3-(4-amino-2-(trifluoromethyl)imidazo[2,1-f][1,2,4]triazin-7-yl)-4-methyl-N-(pyrazin-2-ylmethyl)benzenesulfonamide]	< 0.1
Cc1ccc(S(=O)(=O)NC23CCCC(C#N)(C2)C3)cc1-c1cnc2c(N)ncnn12 [Example 520, 3-(4-Aminoimidazo[2,1-f][1,2,4]triazin-7-yl)-N-(5-cyanobicyclo[3.1.1]heptan-1-yl)-4-methylbenzenesulfonamide trifluoroacetate]	< 0.1
Cc1ccc(S(=O)(=O)NC23CCCC(C(C)O)(C2)C3)cc1-c1cnc2c(N)ncnn12 (stereo not shown) [Example 521, 3-(4-aminoimidazo[2,1-f][1,2,4]triazin-7-yl)-N-(5-(1-hydroxyethyl)bicyclo[3.1. 1]heptan-1-yl)-4-methylbenzenesulfonamide trifluoroacetate]	< 0.1
Cc1ccc(S(=O)(=O)NC23CCCC(C(C)N4CC(C#N)C4)(C2)C3)cc1-c1cnc2c(N)ncnn12 (stereo not shown) [Example 522, 3-(4-Aminoimidazo[2,1-f][1,2,4]triazin-7-yl)-N-(5-(1-(3-cyanoazetidin-1-yl)ethyl)bicyclo[3.1.1]heptan-1-yl)-4-methylbenzenesulfonamide trifluoroacetate]	< 0.1
Cc1ccc(S(=O)(=O)NC23CC(CN(C)C2)C3)cc1-c1cnc2c(N)ncnn12 [Example 523, 3-(4-Aminoimidazo[2,1-f][1,2,4]triazin-7-yl)-4-methyl-N-(3-methyl-3-azabicyclo[3.1.1]heptan-1-yl)benzenesulfonamide trifluoroacetate]	< 0.1
Cc1ccc(S(=O)(=O)NC23CC(CN(C(C)C)C2)C3)cc1-c1cnc2c(N)nc(C(F)(F)F)nn12 [Example 524, 3-(4-Amino-2-(trifluoromethyl)imidazo[2,1-f][1,2,4]triazin-7-yl)-N-(3-isopropyl-3-azabicyclo[3.1.1]heptan-1-yl)-4-methylbenzenesulfonamide trifluoroacetate]	< 0.1
Cc1ccc(S(=O)(=O)NC23CC(CN(C4CCC4)C2)C3)cc1-c1cnc2c(N)ncnn12 [Example 525, 3-(4-Aminoimidazo[2,1-f][1,2,4]triazin-7-yl)-N-(3-cyclobutyl-3-azabicyclo[3.1.1]heptan-1-yl)-4-methylbenzenesulfonamide trifluoroacetate]	0.1 to 0.5
Cc1ccc(S(=O)(=O)NC2(C)CCCN(C)C2)cc1-c1cnc2c(N)nc(C(F)(F)F)nn12 (stereo not shown) [Example 526, 3-(4-Amino-2-(trifluoromethyl)imidazo[2,1-f][1,2,4]triazin-7-yl)-N-(1,3-dimethylpiperidin-3-yl)-4-methylbenzenesulfonamide trifluoroacetate]	< 0.1
Cc1ccc(S(=O)(=O)NC2(C)CCCN(C(C)C)C2)cc1-c1cnc2c(N)nc(C(F)(F)F)nn12 (stereo not shown) [Example 527, 3-(4-Amino-2-(trifluoromethyl)imidazo[2,1-f][1,2,4]triazin-7-yl)-N-(1-isopropyl-3-methylpiperidin-3-yl)-4-methylbenzenesulfonamide trifluoroacetate]	< 0.1
Cc1ccc(S(=O)(=O)NC2(C)CCN(C)CC2)cc1-c1cnc2c(N)nc(C(F)(F)F)nn12 [Example 528, 3-(4-Amino-2-(trifluoromethyl)imidazo[2,1-f][1,2,4]triazin-7-yl)-N-(1,4-dimethylpiperidin-4-yl)-4-methylbenzenesulfonamide trifluoroacetate]	< 0.1
Cc1ccc(S(=O)(=O)NC2(C)CCN(C3CC(C#N)C3)CC2)cc1-c1cnc2c(N)nc(C(F)(F)F)nn12 (stereo not shown) [Example 529, 3-(4-Amino-2-(trifluoromethyl)imidazo[2,1-f][1,2,4]triazin-7-yl)-N-(1-(3-cyanocyclobutyl)-4-methylpiperidin-4-yl)-4-methylbenzenesulfonamide trifluoroacetate]	0.1 to 0.5
Cc1ccc(S(=O)(=O)NC2(C)CCN(C3CCOC3)CC2)cc1-c1cnc2c(N)nc(C(F)(F)F)nn12 (stereo not shown) [Example 530, 3-(4-Amino-2-(trifluoromethyl)imidazo[2,1-f][1,2,4]triazin-7-yl)-4-methyl-N-(4-methyl-1-(tetrahydrofuran-3-yl)piperidin-4-yl)benzenesulfonamide trifluoroacetate]	0.1 to 0.5
Cc1ccc(S(=O)(=O)NC2(C)CNC2)cc1-c1cnc2c(N)nc(C(F)(F)F)nn12 [Example 531, 3-(4-Amino-2-(trifluoromethyl)imidazo[2,1-f][1,2,4]triazin-7-yl)-4-methyl-N-(3-methylazetidin-3-yl)benzenesulfonamide trifluoroacetate]	< 0.1
Cc1ccc(S(=O)(=O)NC2(C)CN(C)C2)cc1-c1cnc2c(N)nc(C(F)(F)F)nn12 [Example 532, 3-(4-Amino-2-(trifluoromethyl)imidazo[2,1-f][1,2,4]triazin-7-yl)-N-(1,3-dimethylazetidin-3-yl)-4-methylbenzenesulfonamide]	< 0.1
Cc1ccc(S(=O)(=O)NC2(C)CCN(C)C2)cc1-c1cnc2c(N)nc(C(F)(F)F)nn12 (stereo not shown) [Example 533, 3-(4-Amino-2-(trifluoromethyl)imidazo[2,1-f][1,2,4]triazin-7-yl)-N-(1,3-dimethylpyrrolidin-3-yl)-4-methylbenzenesulfonamide trifluoroacetate]	< 0.1
Cc1ccc(S(=O)(=O)NC23C4C5C2C2C3C4C52C#N)cc1-c1cnc2c(N)ncnn12 (stereo not shown) [Example 534, 3-(4-Aminoimidazo[2,1-f][1,2,4]triazin-7-yl)-N-(4-cyanocuban-1-yl)-4-methylbenzenesulfonamide trifluoroacetate]	< 0.1
Cc1ccc(S(=O)(=O)NC23C4C5C2C2C3C4C52C(C)(C)O)cc1-c1cnc2c(N)ncnn12 (stereo not shown) [Example 535, 3-(4-Aminoimidazo[2,1-f][1,2,4]triazin-7-yl)-N-(4-(2-hydroxypropan-2-yl)cuban-1-yl)-4-methylbenzenesulfonamide trifluoroacetate]	< 0.1
